The record followed here is ChEMBL document CHEMBL1124651, “Cytostatic trans-platinum(II) complexes” (J Med Chem, 1989).

Several values for one entry are separate records, joined by “and”; a condition that tells them apart may be missing. Equal values may be shown once.

One experiment relates to Mus musculus. In words: Maximum dose at which all tested BDF1 mice survived after 30 days of intraperitoneal dosage. The class given is functional.
The subject of the next experiment is L1210. In words: Compound was evaluated for its inhibitory dose against L1210 leukemia cell line. The class given is functional, cell-based. The settings on record: Mus musculus.
A further experiment has as its system P388. Description: Anti tumor activity expressed as median survival time of treated BDF1 mice bearing P388 leukemia cells versus untreated controls. Type of experiment: functional, cell-based. The settings on record: Mus musculus.

As for CISPLATIN, the LD0 in the experiment with Mus musculus is 30 µM/kg. The substance further had an ID50 in the experiment on L1210 of 2.3 µM. Also, the T/C (in general, the result in the treated group divided by that in the control group, in per cent) with P388 was 205%.
In turn, TRANSPLATIN yielded an LD0 with Mus musculus of 167 µM/kg. This substance also returned an ID50 in the experiment on L1210 of 67 µM. In the experiment on P388, this substance gave a T/C of 116%.
Turning to Cis-[PtCl2(gamma-pic)2] complex, the T/C in the experiment with P388 was 105% and 119%.
